Reference: patent US20220411372A1, “SMALL-MOLECULE INHIBITORS FOR THE B-CATENIN/B-CELL LYMPHOMA 9 PROTEIN-PROTEIN INTERACTION” (H. Lee Moffitt Cancer Center and Research Institute, Inc., priority 2019, published 2022)

target: T1, β-catenin/BCL9 PPI (Homo sapiens, UniProt P35222); experiment: AlphaScreen competitive inhibition assay of the β-catenin/BCL9 PPI; format: binding; settings: Table 2, inhibitors 15-26; read-out: Ki
T1 construct: Full-length β-catenin (residues 1-781) were cloned into a pET-28b vector; made in house; host or cells: E. coli BL21 DE3 (β-catenin); BCL9 peptide synthesized by InnoPep Inc
T1 sequence (P35222 1-781): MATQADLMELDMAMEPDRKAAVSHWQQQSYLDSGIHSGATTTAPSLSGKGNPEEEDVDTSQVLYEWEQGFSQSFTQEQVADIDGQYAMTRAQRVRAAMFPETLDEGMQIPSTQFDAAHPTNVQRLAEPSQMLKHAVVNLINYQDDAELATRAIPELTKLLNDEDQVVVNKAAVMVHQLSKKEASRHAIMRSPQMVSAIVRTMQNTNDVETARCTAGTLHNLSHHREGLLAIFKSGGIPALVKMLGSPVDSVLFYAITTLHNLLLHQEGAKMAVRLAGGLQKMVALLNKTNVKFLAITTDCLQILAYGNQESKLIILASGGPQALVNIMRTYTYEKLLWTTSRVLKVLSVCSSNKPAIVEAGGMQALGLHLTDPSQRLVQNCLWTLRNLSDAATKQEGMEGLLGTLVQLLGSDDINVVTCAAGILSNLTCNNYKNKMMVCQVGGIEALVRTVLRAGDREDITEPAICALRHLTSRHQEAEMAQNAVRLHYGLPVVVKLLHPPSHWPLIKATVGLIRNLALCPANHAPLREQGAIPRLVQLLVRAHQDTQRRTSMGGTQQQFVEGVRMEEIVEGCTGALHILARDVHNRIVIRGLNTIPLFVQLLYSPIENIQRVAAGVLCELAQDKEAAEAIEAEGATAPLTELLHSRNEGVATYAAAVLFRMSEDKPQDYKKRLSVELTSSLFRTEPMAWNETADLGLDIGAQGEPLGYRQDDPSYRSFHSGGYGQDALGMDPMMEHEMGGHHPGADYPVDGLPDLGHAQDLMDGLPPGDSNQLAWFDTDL
Protocol: AlphaScreen Assays of β-Catenin and BCL9 Interaction. Experiments were performed in white opaque 384-well plates from PerkinElmer (Waltham, Mass.), and the samples were read on a Synergy 2 plate reader (Biotek, Winooski, Vt.) with excitation at 680 nm and emission at 570 nm. The standard AlphaScreen protocol was used with a sensitivity setting of 200. All dilutions were made in 1× assay buffer containing 25 mM Hepes (pH 7.4), 100 mM NaCl, 0.01% Triton X-100 and 0.1% BSA to minimize nonspecific interactions.
For the β-catenin/BCL9 assay, 5 nM biotinylated BCL9 and 40 nM His6-tagged β-catenin were incubated in assay buffer at 4° C. for 30 min. For the β-catenin/E-cadherin assay, 10 nM biotinylated human E-cadherin, and 40 nM His6-tagged human β-catenin were added and incubated in assay buffer at 4° C. for 30 min. Different concentrations of the tested inhibitor were added and incubated in 20 μL assay buffer at 4° C. for another 1 h. All of the assay plates were covered and gently mixed on an orbital shaker. The donor and acceptor beads were then added to the plates to a final concentration of 10 μg/mL in […]. The mixture was incubated for 1 h at 4° C. before detection. The IC50 value was determined by nonlinear least-square analysis of GraphPad Prism 5.0. […] All of the experiments were performed in triplicate and carried out in the presence of 1% DMSO for small-molecule inhibitors. Each compound was assayed at least by two independent experiments. The results were expressed as mean±standard deviation. The inhibitor selectivity for β-catenin/BCL9 over β-catenin/E-canderin interactions was defined as the ratio of the respective Ki value of β-catenin/E-cadherin interactions over that of β-catenin/BCL9 interactions.

Ki	SMILES
≤ 30 µM	CC(C)c1ccc(CNC(=O)[C@H]2CCCN(c3cccc(OC(C)(C)C(=O)N4CCNCC4)c3)C2)cc1 [Compound 18, (S)-4-(2-(3-(3-((4-isopropylbenzyl)carbamoyl)piperidin-1-yl)phenoxy)-2-methylpropanoyl)piperazin-1-ium chloride]
≤ 30 µM	CC(C)c1ccc(CN(C)C(=O)[C@@H]2CCCN(c3cccc(OC(C)(C)C(=O)N4CCNCC4)c3)C2)cc1 [Compound 19, (R)-4-(2-(3-(3-((4-isopropylbenzyl)(methyl)carbamoyl)piperidin-1-yl)phenoxy)-2-methylpropanoyl)piperazin-1-ium chloride]
≤ 10 µM	CC(C)c1ccc(CN(C)C(=O)[C@H]2CCCN(c3cccc(OC(C)(C)C(=O)N4CCNCC4)c3)C2)cc1 [Compound 20, (S)-4-(2-(3-(3-((4-isopropylbenzyl)(methyl)carbamoyl)piperidin-1-yl)phenoxy)-2-methylpropanoyl)piperazin-1-ium chloride]
≤ 10 µM	CC(C)c1ccc(CN(C(=O)[C@H]2CCCN(c3cccc(OC(C)(C)C(=O)N4CCNCC4)c3)C2)C(C)C)cc1 [Compound 24, (S)-4-(2-(3-(3-(isopropyl(4-isopropylbenzyl)carbamoyl)piperidin-1-yl)phenoxy)-2-methylpropanoyl)piperazin-1-ium chloride]
≤ 5 µM	CC(C)c1ccc(CN(C(=O)[C@@H]2CCCN(c3cccc(OC(C)(C)C(=O)N4CCNCC4)c3)C2)C2CC2)cc1 [Compound 25, (R)-4-(2-(3-(3-(cyclopropyl(4-isopropylbenzyl)carbamoyl)piperidin-1-yl)phenoxy)-2-methylpropanoyl)piperazin-1-ium chloride]
≤ 10 µM	CC(C)c1ccc(CN(C(=O)[C@H]2CCCN(c3cccc(OC(C)(C)C(=O)N4CCNCC4)c3)C2)C2CC2)cc1 [Compound 26, (S)-4-(2-(3-(3-(cyclopropyl(4-isopropylbenzyl)carbamoyl)piperidin-1-yl)phenoxy)-2-methylpropanoyl)piperazin-1-ium chloride]

The next lines start with the compound.

SMILES	Ki
CC(C)c1ccc(CNC(=O)[C@@H]2CCCN(c3cccc(OC(C)(C)C(=O)N4CCNCC4)c3)C2)cc1 [Compound 17, (R)-4-(2-(3-(3-((4-isopropylbenzyl)carbamoyl)piperidin-1-yl)phenoxy)-2-methylpropanoyl)piperazin-1-ium chloride]	≤ 10 µM
CCN(Cc1ccc(C(C)C)cc1)C(=O)[C@@H]1CCCN(c2cccc(OC(C)(C)C(=O)N3CCNCC3)c2)C1 [Compound 21, (R)-4-(2-(3-(3-(ethyl(4-isopropylbenzyl)carbamoyl)piperidin-1-yl)phenoxy)-2-methylpropanoyl)piperazin-1-ium chloride]	≤ 30 µM
CCN(Cc1ccc(C(C)C)cc1)C(=O)[C@H]1CCCN(c2cccc(OC(C)(C)C(=O)N3CCNCC3)c2)C1 [Compound 22, (S)-4-(2-(3-(3-(ethyl(4-isopropylbenzyl)carbamoyl)piperidin-1-yl)phenoxy)-2-methylpropanoyl)piperazin-1-ium chloride]	≤ 30 µM
CC(C)c1ccc(CN(C(=O)[C@@H]2CCCN(c3cccc(OC(C)(C)C(=O)N4CCNCC4)c3)C2)C(C)C)cc1 [Compound 23, (R)-4-(2-(3-(3-(isopropyl(4-isopropylbenzyl)carbamoyl)piperidin-1-yl)phenoxy)-2-methylpropanoyl)piperazin-1-ium chloride]	≤ 10 µM

same assay, conditions: Table 3, inhibitors 27-43; read-out: Ki

Ki	SMILES
≤ 5 µM	CC(C)(Oc1cccc(N2CCC[C@@H](C(=O)N(Cc3ccc(C4CCCCC4)cc3)C3CC3)C2)c1)C(=O)N1CCNCC1 [Compound 29, (R)-4-(2-(3-(3-((4-cyclohexylbenzyl)(cyclopropyl)carbamoyl)piperidin-1-yl)phenoxy)-2-methylpropanoyl)piperazin-1-ium chloride]
< 90 µM	CC(C)(Oc1cccc(N2CCC[C@@H](C(=O)N(Cc3ccc(-c4ccncc4)cc3)C3CC3)C2)c1)C(=O)N1CCNCC1 [Compound 35, (R)-4-(2-(3-(3-(cyclopropyl(4-(pyridin-4-yl)benzyl)carbamoyl)piperidin-1-yl)phenoxy)-2-methylpropanoyl)piperazin-1-ium chloride]
≤ 50 µM	Cc1n[nH]cc1-c1ccc(CN(C(=O)[C@@H]2CCCN(c3cccc(OC(C)(C)C(=O)N4CCNCC4)c3)C2)C2CC2)cc1 [Compound 39, (R)-4-(2-(3-(3-(cyclopropyl(4-(3-methyl-1H-pyrazol-4-yl)benzyl)carbamoyl)piperidin-1-yl)phenoxy)-2-methylpropanoyl)piperazin-1-ium chloride]
< 10 µM	Cc1n[nH]c(C)c1-c1ccc(CN(C(=O)[C@@H]2CCCN(c3cccc(OC(C)(C)C(=O)N4CCNCC4)c3)C2)C2CC2)cc1 [Compound 40, (R)-4-(2-(3-(3-(cyclopropyl(4-(3,5-dimethyl-1H-pyrazol-4-yl)benzyl)carbamoyl)piperidin-1-yl)phenoxy)-2-methylpropanoyl)piperazin-1-ium chloride]

The remaining lines, values behind:

SMILES	Ki
CC(C)(Oc1cccc(N2CCC[C@@H](C(=O)N(Cc3ccc(C(C)(C)C)cc3)C3CC3)C2)c1)C(=O)N1CCNCC1 [Compound 28, (R)-4-(2-(3-(3-((4-(tert-butyl)benzyl)(cyclopropyl)carbamoyl)piperidin-1-yl)phenoxy)-2-methylpropanoyl)piperazin-1-ium chloride]	≤ 30 µM
CC(C)(Oc1cccc(N2CCC[C@@H](C(=O)N(Cc3ccc(-c4ccccc4)cc3)C3CC3)C2)c1)C(=O)N1CCNCC1 [Compound 31, (R)-4-(2-(3-(3-(([1,1′-biphenyl]-4-ylmethyl)(cyclopropyl)carbamoyl)piperidin-1-yl)phenoxy)-2-methylpropanoyl)piperazin-1-ium chloride]	< 5 µM
CC(C)(Oc1cccc(N2CCC[C@@H](C(=O)N(Cc3ccc(-c4ccsc4)cc3)C3CC3)C2)c1)C(=O)N1CCNCC1 [Compound 32, (R)-4-(2-(3-(3-(cyclopropyl(4-(thiophen-3-yl)benzyl)carbamoyl)piperidin-1-yl)phenoxy)-2-methylpropanoyl)piperazin-1-ium chloride]	< 5 µM
CC(C)(Oc1cccc(N2CCC[C@@H](C(=O)N(Cc3ccc(-c4ccccn4)cc3)C3CC3)C2)c1)C(=O)N1CCNCC1 [Compound 33, (R)-4-(2-(3-(3-(cyclopropyl(4-(pyridin-2-yl)benzyl)carbamoyl)piperidin-1-yl)phenoxy)-2-methylpropanoyl)piperazin-1-ium chloride]	< 90 µM
Cn1cc(-c2ccc(CN(C(=O)[C@@H]3CCCN(c4cccc(OC(C)(C)C(=O)N5CCNCC5)c4)C3)C3CC3)cc2)cn1 [Compound 38, (R)-4-(2-(3-(3-(cyclopropyl(4-(1-methyl-11/-pyrazol-4-yl)benzyl)carbamoyl)piperidin-1-yl)phenoxy)-2-methylpropanoyl)piperazin-1-ium chloride]	≤ 90 µM
Cc1noc(C)c1-c1ccc(CN(C(=O)[C@@H]2CCCN(c3cccc(OC(C)(C)C(=O)N4CCNCC4)c3)C2)C2CC2)cc1 [Compound 41, (R)-4-(2-(3-(3-(cyclopropyl(4-(3,5-dimethylisoxazol-4-yl)benzyl)carbamoyl)piperidin-1-yl)phenoxy)-2-methylpropanoyl)piperazin-1-ium chloride]	< 30 µM
CC(C)(Oc1cccc(N2CCC[C@@H](C(=O)N(Cc3ccc(-c4c[nH]c5ccccc45)cc3)C3CC3)C2)c1)C(=O)N1CCNCC1 [Compound 42, (R)-4-(2-(3-(3-((4-(1H-indol-3-yl)benzyl)(cyclopropyl)carbamoyl)piperidin-1-yl)phenoxy)-2-methylpropanoyl)piperazin-1-ium]	< 5 µM
